The target in assay [1] is Bromodomain-containing protein 1 (Homo sapiens) (UniProt O95696). As to the kind of experiment: Selectivity interaction (Bromodomain panel (DSF assay)) EUB0000224e BRD1. (In general: Differential scanning fluorimetry follows unfolding on heating by fluorescence.)
The target of assay [2] is Chromatin remodeling regulator CECR2 (Homo sapiens, UniProt Q9BXF3). As to the kind of experiment: Selectivity interaction (Bromodomain panel (DSF assay)) EUB0000224e CECR2.
The target of assay [3] is AT-rich interactive domain-containing protein 4A (Homo sapiens) (UniProt P29374). Put plainly: Selectivity interaction (Reader proteins panel (DSF assay)) EUB0000034d ARID4A.
For assay [4], the target named is Polycomb protein EED (Homo sapiens) (UniProt O75530). Put plainly: Selectivity interaction (Reader proteins panel (DSF assay)) EUB0000034d EED.
In assay [5] the target is RNA-binding protein FXR1 (Homo sapiens) (UniProt P51114). As to the kind of experiment: Selectivity interaction (Reader proteins panel (DSF assay)) EUB0000034d FXR1.
Assay [6] concerns the target Growth/differentiation factor 2 (Homo sapiens) (UniProt Q9UK05). Put plainly: Selectivity interaction (Reader proteins panel (DSF assay)) EUB0000034d GDF2.
Assay [7] deals with Staphylococcal nuclease domain-containing protein 1 (Homo sapiens) (UniProt Q7KZF4). Put plainly: Selectivity interaction (Reader proteins panel (DSF assay)) EUB0000034d SND1.
The target of assay [8] is Tudor domain-containing protein 3 (Homo sapiens) (UniProt Q9H7E2). As to the kind of experiment: Selectivity interaction (Reader proteins panel (DSF assay)) EUB0000034d TDRD3.
In assay [9] the target is E3 ubiquitin-protein ligase UHRF1 (Homo sapiens) (UniProt Q96T88). Put plainly: Selectivity interaction (Reader proteins panel (DSF assay)) EUB0000034d UHRF1.
Assay [10] has as its target WD repeat-containing protein 5 (Homo sapiens) (UniProt P61964). As to the kind of experiment: Selectivity interaction (Reader proteins panel (DSF assay)) EUB0000034d WDR5.
The target in the next assay is Peregrin (Homo sapiens) (UniProt P55201). As to the kind of experiment: Selectivity interaction (Reader proteins panel (DSF assay)) EUB0000034d BRPF1.
Assay [11] has as its target Histone-lysine N-methyltransferase SETD2 (Homo sapiens, UniProt Q9BYW2). Put plainly: Selectivity interaction (Methyltransferase panel) EUB0000034d SETD2. The conditions noted are these: at 10 µM.

This is an account of results in ChEMBL document CHEMBL5212743, “Selectivity Literature for EUbOPEN Chemogenomics Library wave 3” (2023).

A value given as a limit tells only on which side of the number the result lay.

Bromodomain-containing protein 1 (Homo sapiens), sequence (O95696 whole entry): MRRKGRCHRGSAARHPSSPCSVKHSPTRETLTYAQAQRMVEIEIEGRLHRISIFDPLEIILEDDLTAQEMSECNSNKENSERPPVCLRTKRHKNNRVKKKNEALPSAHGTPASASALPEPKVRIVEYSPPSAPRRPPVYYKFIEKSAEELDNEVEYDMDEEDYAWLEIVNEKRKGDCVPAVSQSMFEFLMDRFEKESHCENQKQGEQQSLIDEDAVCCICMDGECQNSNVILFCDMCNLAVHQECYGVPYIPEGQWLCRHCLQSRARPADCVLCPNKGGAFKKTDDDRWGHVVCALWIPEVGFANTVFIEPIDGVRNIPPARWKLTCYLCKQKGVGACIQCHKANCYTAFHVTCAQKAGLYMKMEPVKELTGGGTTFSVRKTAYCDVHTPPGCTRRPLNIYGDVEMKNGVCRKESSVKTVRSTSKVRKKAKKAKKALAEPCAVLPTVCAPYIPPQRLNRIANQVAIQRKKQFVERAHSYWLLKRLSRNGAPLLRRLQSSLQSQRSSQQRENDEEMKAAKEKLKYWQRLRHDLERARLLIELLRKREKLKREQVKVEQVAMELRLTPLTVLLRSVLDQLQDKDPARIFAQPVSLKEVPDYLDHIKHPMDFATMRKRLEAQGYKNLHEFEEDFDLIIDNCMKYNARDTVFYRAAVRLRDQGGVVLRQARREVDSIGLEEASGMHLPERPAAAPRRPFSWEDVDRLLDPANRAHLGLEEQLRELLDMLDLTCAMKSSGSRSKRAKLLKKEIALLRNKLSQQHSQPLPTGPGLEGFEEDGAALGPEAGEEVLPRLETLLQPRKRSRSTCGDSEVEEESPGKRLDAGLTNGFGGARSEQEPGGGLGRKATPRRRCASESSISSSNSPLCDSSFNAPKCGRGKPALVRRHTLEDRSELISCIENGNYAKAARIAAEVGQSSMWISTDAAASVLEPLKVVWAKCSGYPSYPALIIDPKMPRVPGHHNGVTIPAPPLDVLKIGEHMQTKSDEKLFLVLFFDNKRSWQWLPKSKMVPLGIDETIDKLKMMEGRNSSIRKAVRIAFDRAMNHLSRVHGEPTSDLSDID
Polycomb protein EED (Homo sapiens), sequence (O75530 2-441 limits assumed): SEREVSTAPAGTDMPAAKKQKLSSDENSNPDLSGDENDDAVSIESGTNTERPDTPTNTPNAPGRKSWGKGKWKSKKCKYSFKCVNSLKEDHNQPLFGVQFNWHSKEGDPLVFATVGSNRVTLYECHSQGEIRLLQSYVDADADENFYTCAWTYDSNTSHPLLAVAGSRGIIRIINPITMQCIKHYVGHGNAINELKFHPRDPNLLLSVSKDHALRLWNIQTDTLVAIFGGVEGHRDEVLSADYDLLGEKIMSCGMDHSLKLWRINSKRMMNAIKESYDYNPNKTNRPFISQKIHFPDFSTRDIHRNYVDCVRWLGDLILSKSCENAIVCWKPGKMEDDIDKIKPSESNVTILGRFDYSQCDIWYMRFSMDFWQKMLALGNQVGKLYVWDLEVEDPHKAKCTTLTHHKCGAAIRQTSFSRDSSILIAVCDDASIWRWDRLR
Staphylococcal nuclease domain-containing protein 1 (Homo sapiens), sequence (Q7KZF4 whole entry, the tested form may be a part): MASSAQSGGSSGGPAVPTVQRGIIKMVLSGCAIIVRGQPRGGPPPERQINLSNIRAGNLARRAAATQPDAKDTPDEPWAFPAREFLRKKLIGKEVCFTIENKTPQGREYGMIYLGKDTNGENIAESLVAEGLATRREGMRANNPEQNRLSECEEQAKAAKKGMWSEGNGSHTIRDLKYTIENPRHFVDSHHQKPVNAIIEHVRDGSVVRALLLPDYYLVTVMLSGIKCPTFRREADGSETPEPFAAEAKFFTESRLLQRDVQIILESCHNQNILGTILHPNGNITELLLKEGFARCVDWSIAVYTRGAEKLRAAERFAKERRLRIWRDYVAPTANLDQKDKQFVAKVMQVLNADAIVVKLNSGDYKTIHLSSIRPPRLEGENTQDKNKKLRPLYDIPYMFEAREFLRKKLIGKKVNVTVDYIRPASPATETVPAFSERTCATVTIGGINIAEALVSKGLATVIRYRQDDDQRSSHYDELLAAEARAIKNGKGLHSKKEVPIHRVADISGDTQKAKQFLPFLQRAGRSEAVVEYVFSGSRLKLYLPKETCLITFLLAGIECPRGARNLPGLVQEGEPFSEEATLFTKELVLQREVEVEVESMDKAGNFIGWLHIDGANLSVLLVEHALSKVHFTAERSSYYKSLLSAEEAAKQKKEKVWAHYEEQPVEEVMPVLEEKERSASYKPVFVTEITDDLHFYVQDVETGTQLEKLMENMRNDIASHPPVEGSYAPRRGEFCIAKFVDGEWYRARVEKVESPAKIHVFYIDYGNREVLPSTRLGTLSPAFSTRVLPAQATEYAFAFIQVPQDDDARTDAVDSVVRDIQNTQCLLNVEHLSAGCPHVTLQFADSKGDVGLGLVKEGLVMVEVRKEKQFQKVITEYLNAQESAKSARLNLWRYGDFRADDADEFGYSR
Chromatin remodeling regulator CECR2, sequence (Q9BXF3 whole entry, looked up, the tested form may be a part): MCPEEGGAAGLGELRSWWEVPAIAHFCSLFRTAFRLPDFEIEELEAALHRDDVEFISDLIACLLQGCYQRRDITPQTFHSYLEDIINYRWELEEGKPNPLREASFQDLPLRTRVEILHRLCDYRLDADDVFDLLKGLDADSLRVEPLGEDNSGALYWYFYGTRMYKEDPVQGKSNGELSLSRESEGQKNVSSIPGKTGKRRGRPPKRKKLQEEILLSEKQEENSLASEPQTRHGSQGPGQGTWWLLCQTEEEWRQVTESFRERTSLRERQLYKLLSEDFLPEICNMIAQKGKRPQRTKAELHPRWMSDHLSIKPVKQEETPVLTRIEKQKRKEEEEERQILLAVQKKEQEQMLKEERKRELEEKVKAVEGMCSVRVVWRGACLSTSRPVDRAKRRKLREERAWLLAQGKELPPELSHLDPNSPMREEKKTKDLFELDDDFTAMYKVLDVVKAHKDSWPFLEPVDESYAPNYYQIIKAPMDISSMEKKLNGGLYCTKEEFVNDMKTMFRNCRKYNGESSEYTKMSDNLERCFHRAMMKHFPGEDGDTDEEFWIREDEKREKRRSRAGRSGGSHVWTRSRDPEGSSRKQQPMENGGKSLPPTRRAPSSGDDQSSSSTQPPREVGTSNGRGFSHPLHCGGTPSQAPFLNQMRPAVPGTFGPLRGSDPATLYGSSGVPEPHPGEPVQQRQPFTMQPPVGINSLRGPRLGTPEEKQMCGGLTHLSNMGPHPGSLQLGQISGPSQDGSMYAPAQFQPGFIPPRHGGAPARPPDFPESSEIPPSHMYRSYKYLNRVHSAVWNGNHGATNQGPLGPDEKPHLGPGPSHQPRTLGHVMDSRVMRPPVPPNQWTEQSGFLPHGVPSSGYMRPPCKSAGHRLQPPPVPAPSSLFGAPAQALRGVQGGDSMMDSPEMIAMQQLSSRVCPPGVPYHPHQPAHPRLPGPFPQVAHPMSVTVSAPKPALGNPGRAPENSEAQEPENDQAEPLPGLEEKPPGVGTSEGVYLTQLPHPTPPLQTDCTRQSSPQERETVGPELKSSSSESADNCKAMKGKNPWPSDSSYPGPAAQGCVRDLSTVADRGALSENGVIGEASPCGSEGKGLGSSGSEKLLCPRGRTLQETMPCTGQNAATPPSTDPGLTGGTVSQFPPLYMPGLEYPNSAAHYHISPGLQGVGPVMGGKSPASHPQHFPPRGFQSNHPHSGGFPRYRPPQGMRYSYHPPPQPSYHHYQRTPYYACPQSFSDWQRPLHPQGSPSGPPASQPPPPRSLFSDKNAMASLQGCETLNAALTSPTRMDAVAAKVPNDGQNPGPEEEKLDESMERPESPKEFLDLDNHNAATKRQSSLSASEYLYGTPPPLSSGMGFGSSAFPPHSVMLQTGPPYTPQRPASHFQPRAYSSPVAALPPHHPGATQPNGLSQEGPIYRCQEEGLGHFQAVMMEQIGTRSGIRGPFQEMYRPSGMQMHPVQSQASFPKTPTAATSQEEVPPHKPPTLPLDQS
Peregrin (Homo sapiens), sequence (P55201 whole entry): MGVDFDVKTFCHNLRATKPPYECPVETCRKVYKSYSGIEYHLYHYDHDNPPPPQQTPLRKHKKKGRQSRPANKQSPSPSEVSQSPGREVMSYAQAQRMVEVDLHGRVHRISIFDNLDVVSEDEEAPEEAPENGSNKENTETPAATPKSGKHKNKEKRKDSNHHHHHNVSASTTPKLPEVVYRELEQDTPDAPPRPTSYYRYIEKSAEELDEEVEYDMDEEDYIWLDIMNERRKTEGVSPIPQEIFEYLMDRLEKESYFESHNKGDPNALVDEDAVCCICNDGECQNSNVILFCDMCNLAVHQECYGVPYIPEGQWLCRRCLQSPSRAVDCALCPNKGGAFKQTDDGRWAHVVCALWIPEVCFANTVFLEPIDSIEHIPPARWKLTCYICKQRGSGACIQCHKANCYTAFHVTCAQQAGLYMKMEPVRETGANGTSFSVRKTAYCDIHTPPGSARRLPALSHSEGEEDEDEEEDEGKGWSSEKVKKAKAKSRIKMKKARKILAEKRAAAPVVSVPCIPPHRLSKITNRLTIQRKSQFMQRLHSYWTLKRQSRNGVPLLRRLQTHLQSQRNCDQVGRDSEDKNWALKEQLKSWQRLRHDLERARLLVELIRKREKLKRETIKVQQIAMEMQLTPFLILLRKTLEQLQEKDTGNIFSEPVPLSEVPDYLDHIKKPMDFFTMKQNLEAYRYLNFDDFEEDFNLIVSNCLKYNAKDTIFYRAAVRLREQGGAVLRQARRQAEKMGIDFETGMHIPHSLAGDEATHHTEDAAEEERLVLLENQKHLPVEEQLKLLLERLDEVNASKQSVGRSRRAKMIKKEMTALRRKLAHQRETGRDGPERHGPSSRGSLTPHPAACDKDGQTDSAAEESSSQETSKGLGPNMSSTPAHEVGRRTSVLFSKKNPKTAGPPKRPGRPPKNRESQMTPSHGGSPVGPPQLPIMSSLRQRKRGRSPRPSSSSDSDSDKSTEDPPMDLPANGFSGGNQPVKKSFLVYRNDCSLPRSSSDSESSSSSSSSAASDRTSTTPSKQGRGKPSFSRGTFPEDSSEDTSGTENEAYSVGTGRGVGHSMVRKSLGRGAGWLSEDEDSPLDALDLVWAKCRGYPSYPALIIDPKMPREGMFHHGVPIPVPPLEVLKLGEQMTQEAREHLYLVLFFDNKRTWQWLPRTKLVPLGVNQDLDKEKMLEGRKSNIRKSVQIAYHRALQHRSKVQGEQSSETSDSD

Take `COc1ccccc1C(=O)Nc1cc2c(cc1N1CCCC1)n(C)c(=O)n2C`: the dTm in [1] and in [2] was 2 K in each case.

`CC(C)Oc1ccc(-c2c[nH]cc2CN(C)CCN)cc1`: the dTm in [3], in [4], in assay [5], in assay [6], in assay [7] and in assay [8] was less than 2 K each time. The dTm (in assay [9]; in assay [10]; at Peregrin (Homo sapiens)) was less than 2 K throughout. For the same compound, the % activity remaining in assay [11] worked out at 80%.
